Results as given in patent US9518284B2 (priority 2001, dated 2016).
Like-named read-outs stand apart in the source and are kept apart here.

Test system: yeast cells overexpressing WT alpha-synuclein
Assay type: cell-based, Saccharomyces cerevisiae
[1] = preliminary study, concentration not given
[2] = preliminary study, agent at 5 μM

`C[C@]12CC[C@H]3[C@@H](CCC4=CC(=O)CC[C@@]43C)[C@@H]1CC[C@@H]2C(=O)CO` [Deoxycorticosterone] was tested, and the “ability to alleviate toxicity caused by alpha-synuclein overexpression” value (shortened to “ability to alleviate toxicity caused”) [1] was “alleviate toxocity”.

In the case of `N[C@@H](CCC(=O)N[C@@H](CS)C(=O)NCC(=O)O)C(=O)O` [glutathione], the “ability to alleviate toxicity caused” value is reported as “alleviate toxocity”.

In the case of bleomycin, the “effect on the growth of yeast cells overexpressing WT alpha-synuclein” value (from here on “effect on the growth”) (agent at 1 μg/ml) is reported as “negative effect on the growth”.

With `C=CCC(N)C(=O)O` (racemic) [DL-C-allylglycine] the “ability to alleviate toxicity caused” value (preliminary study, agent at 0.025 mg/ml) was “alleviate toxocity”.

In the case of `Oc1c(I)cc(Cl)c2cccnc12` [clioquinol], the “ability to alleviate toxicity caused” value [2] is reported as “alleviate toxocity”.

For `O=S(=O)([O-])[O-].[Cu+2]` [CuSo4], the “effect on the growth” value (agent at 2.5 mM) was “negative effect on the growth” and the “effect on the growth” value (agent at 5 mM) was “negative effect on the growth”.

For `O=S(=O)([O-])[O-].O=S(=O)([O-])[O-].O=S(=O)([O-])[O-].[Fe+3].[Fe+3]` [Fe2(SO4)3], the “effect on the growth” value (agent at 8.5 mM) was “negative effect on the growth”.

For `CCN(CC)CCCC(C)Nc1ccnc2cc(Cl)ccc12` (centres unmarked) [chloroquine], the “ability to alleviate toxicity caused” value (preliminary study, agent at 4.2 μM) was “alleviate toxocity”.

`CC[C@@]1(O)C(=O)OCc2c1cc1n(c2=O)Cc2cc3ccccc3nc2-1` [camptothecin] was tested, and the “effect on the growth” value (agent at 5 μg/ml) was “negative effect on the growth” and the “ability to alleviate toxicity caused” value (preliminary study, agent at 0.1 μg/ml) was “alleviate toxocity”.

`O=C(O)CCCc1ccc(N(CCCl)CCCl)cc1` [chlorambucil] was tested, and the “effect on the growth” value (agent at 3 mM) was “negative effect on the growth”.

For `CC1=CC(=O)c2ccccc2C1=O` [menadione], the “effect on the growth” value (agent at 20-50 μM) was “negative effect on the growth”.

`[O]=[V]([O-])([O-])[O-]` [vanadate] was tested, and the “effect on the growth” value (agent at 0.1 mM) was “negative effect on the growth”, the “effect on the growth” value (agent at 1 mM) was “negative effect on the growth” and the “effect on the growth” value (agent at 2 mM) was “negative effect on the growth”. The “effect on the growth” value (agent at 4 mM) was “negative effect on the growth” and the “effect on the growth” value (agent at 7 mM+KCl) was “negative effect on the growth”.

For `CN[C@H]1C[C@@H](N)[C@H](O)[C@@H](O[C@@H]2O[C@H](CO)[C@H](O)[C@@H]3OC4(O[C@H]23)O[C@H]([C@@H](N)CO)[C@H](O)[C@H](O)[C@H]4O)[C@@H]1O` (some centres unmarked) [Hygromycin B], the “ability to alleviate toxicity caused” value (preliminary study, agent at 50 μg/ml) was “alleviate toxocity”.

For `N[C@@H](CO)C(=O)O` [serine], the “ability to alleviate toxicity caused” value (preliminary study, agent at 1 mg/ml) was “alleviate toxocity”.

For `O=C(O)c1cc(/N=N/c2ccc(-c3ccc(/N=N/c4ccc(O)c(C(=O)O)c4)cc3)cc2)ccc1O` [chrysamine G], the “ability to alleviate toxicity caused” value (preliminary study, agent at 1.0 μM) was “alleviate toxocity”.

In the case of `N[C@@H](Cc1ccc(O)c(O)c1)C(=O)O` [L-DOPA, L-dihydroxyphenylalanine], the “ability to alleviate toxicity caused” value [1] is reported as “alleviate toxocity”.

With `Nc1c(/N=N/c2ccc(-c3ccc(/N=N/c4cc(S(=O)(=O)O)c5ccccc5c4N)cc3)cc2)cc(S(=O)(=O)O)c2ccccc12` [Congo Red] the “ability to alleviate toxicity caused” value [2] was “alleviate toxocity”.

`O=C[C@@H](O)[C@H](O)[C@H](O)CO` [arabinose] was tested, and the “effect on the growth” value (agent at 2% in medium) was “negative effect on the growth”.

For `[Cl-].[Cl-].[Mg+2]` [MgCl2], the “effect on the growth” value (agent at 0.5 M) was “negative effect on the growth”.

`CCSCC[C@H](N)C(=O)O` [L-ethionine] was tested, and the “ability to alleviate toxicity caused” value (preliminary study, agent at 1 μg/ml) was “alleviate toxocity”.

With `C[C@@H](O)CC(=O)O` [(R)-(−)-3-hydroxybutirate] the “ability to alleviate toxicity caused” value [1] was “alleviate toxocity”.

With `[Cl-].[Cl-].[Sr+2]` [SrCl2] the “effect on the growth” value (agent at 0.5 M) was “negative effect on the growth”.

With protamine sulphate the “ability to alleviate toxicity caused” value (preliminary study, agent at 250 μM) was “alleviate toxocity”.

For `NC[C@@H]1O[C@H](O[C@H]2[C@@H](O)[C@H](O[C@@H]3[C@@H](O)[C@H](N)C[C@H](N)[C@H]3O[C@H]3O[C@H](CO)[C@@H](O)[C@H](O)[C@H]3N)O[C@@H]2CO)[C@H](N)[C@@H](O)[C@@H]1O` [paromomycin], the “ability to alleviate toxicity caused” value (preliminary study, agent at 200 μg/ml) was “alleviate toxocity”.

`C[n+]1ccc(-c2cc[n+](C)cc2)cc1` [paraquat] was tested, and the “effect on the growth” value (agent at 1 mM) was “negative effect on the growth”.

`[Cl-].[Rb+]` [RbCl] was tested, and the “effect on the growth” value (agent at 0.2 M) was “negative effect on the growth”.

`[Ca+2].[Cl-].[Cl-]` [CaCl2] was tested, and the “effect on the growth” value (agent at 0.5 M) was “negative effect on the growth”.

For `O=c1cn[nH]c(=O)[nH]1` [6-azauracil], the “effect on the growth” value (agent at 30 μg/ml) was “negative effect on the growth”.

With `NC=O` [formamide] the “effect on the growth” value (agent at 2% in medium) was “negative effect on the growth”.

`Cl.N=C(N)N` [GuHCl] was tested, and the “effect on the growth” value (agent at 20 (unit not given)) was “negative effect on the growth”.

With `[Cl][Fe][Cl]` [FeCl2] the “effect on the growth” value (agent at 10 mM) was “negative effect on the growth”, the “effect on the growth” value (agent at 15 mM) was “negative effect on the growth” and the “effect on the growth” value (agent at 23 mM) was “negative effect on the growth”. For the same compound, the “effect on the growth” value (agent at 50 mM) was “negative effect on the growth”.

In the case of `[Cl-].[Cs+]` [CsCl], the “effect on the growth” value (agent at 0.1 M) is reported as “negative effect on the growth”.

With `C[C@H]1CCC/C=C/[C@@H]2C[C@H](O)C[C@H]2[C@H](O)/C=C/C(=O)O1` [brefeldin A] the “effect on the growth” value (agent at 100 μg/ml) was “negative effect on the growth”.

With `O=S(=O)([O-])[O-].[Fe+2]` [FeSO4] the “effect on the growth” value (agent at 20 mM) was “negative effect on the growth”.

In the case of `[Cl-].[Cl-].[Co+2]` [CoCl2], the “effect on the growth” value is reported as “negative effect on the growth”.

With `NC(N)=O` [urea] the “effect on the growth” value (agent at 1 mg/ml) was “negative effect on the growth”.

For `O=S(=O)([O-])[O-].[Mg+2]` [MgSO4], the “effect on the growth” value (agent at 0.5 M) was “negative effect on the growth”.

`NC(=O)NO` [hydroxyurea] was tested, and the “effect on the growth” value (agent at 5 mg/ml) was “negative effect on the growth”.
